Some results are limits rather than exact numbers.

T1 sequence (Q16539 whole entry): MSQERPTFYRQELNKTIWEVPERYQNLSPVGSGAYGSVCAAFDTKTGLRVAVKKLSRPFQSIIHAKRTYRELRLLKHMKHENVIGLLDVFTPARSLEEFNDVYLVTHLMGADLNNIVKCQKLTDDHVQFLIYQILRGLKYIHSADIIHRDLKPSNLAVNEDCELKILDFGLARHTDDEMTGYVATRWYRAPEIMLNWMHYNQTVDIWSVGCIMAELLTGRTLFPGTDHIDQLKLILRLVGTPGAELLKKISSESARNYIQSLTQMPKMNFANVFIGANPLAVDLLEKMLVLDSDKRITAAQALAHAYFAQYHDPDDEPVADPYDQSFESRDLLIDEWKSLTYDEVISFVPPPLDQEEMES

One experiment concerns the target T1, active p38 alpha enzyme (Upstate Biotechnology) (Homo sapiens, UniProt Q16539).
T1 construct: purchased Upstate Biotechnology
Briefly: p38α biochemical assay (ATP turnover, luminescent detection, Cambrex PKlight). The note with it: p38α biochemical assay, Table 1 Biological Activity. The method in brief:
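Active human p38α was incubated with full-length MapkapK2 protein as substrate and 1.4 uM ATP (final) for 2 hours at 30C. Buffer: 200 mM Tris, 100 mM MgCl2, 1.5 mM EGTA, 4 mM CaCl2, 20 mM MOPS, 1 mM EDTA, 1% glycerol, 0.1% β-mercaptoethanol, 1 mg/ml BSA. Total ATP turnover read by luminescence.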
On to `Cc1cc(C(=O)N2CCN(Cc3nc(-c4ccc(F)cc4)c(-c4nc(C(=O)NC(C)C)cs4)o3)CC2)cc(Cl)n1` [Example 429], for which the half-maximal inhibitory concentration (IC50) – broadly, the concentration that gives 50% inhibition – was more than 1000 nM.

Compound `CC(C)NC(=O)c1csc(-c2c(-c3ccc(F)cc3)noc2CNC(=O)c2cccc(Cl)c2Cl)n1` [Example 726] had an IC50 of more than 1000 nM.

The compound `CCN(CC)c1ccc(C(=O)NCc2onc(-c3ccc(F)cc3)c2-c2nc(C(=O)NC(C)C)cs2)cc1` [Example 735] showed an IC50 of more than 1000 nM.

The compound `CC(C)NC(=O)c1csc(-c2c(-c3ccc(F)cc3)noc2CNC(=O)c2cc([N+](=O)[O-])ccc2O)n1` [Example 709] came in with a 50% inhibitory concentration (IC50) of more than 1000 nM.

In turn, `Cc1ccc(O)c(C(=O)NCc2nc(-c3ccc(F)cc3)c(-c3nc(C(=O)NC(C)C)cs3)o2)c1` [Example 145] displayed a half-inhibitory concentration (IC50) of more than 1000 nM.

Consider `COc1ccc(Cl)cc1C(=O)NCc1nc(-c2ccc(F)cc2)c(-c2nc(C(=O)NC(C)C)cs2)o1` [Example 238], for which the concentration for half-maximal inhibition (IC50) is more than 1000 nM.

`CC(C)NC(=O)c1csc(-c2c(-c3ccc(F)cc3)noc2CNC(=O)c2cc3ccccc3s2)n1` [Example 682]: the half-maximal inhibitory concentration (IC50) was more than 1000 nM.

`CC(C)NC(=O)c1csc(-c2oc(CNC(=O)c3ccc(Cl)cc3O)nc2-c2ccc(F)cc2)n1` [Example 195]: the concentration for half-maximal inhibition (IC50) was more than 1000 nM.

In turn, `COc1ccc(O)c(C(=O)N2CCN(Cc3nc(-c4ccc(F)cc4)c(-c4nc(C(=O)NC(C)C)cs4)o3)CC2)c1` [Example 424] registered an IC50 not above 1000 nM.

`Cc1onc(-c2ccc(Cl)cc2)c1-c1ccn(C(=O)N(C)C(C)C)n1` [Example 13, 3-|3-(4-Chloro-phenyl)-5-methyl-isoxazol-4-yl|-pyrazole-1-carboxylic acid isopropyl-methyl-amide] came in with an IC50 of more than 1000 nM.

In turn, `CC(C)NC(=O)c1csc(-c2oc(CNC(=O)C(Cc3ccccn3)NC(=O)OC(C)(C)C)nc2-c2ccc(F)cc2)n1` (centres unmarked) [Example 332] returned an IC50 of more than 1000 nM.

On to `CC(C)NC(=O)c1csc(-c2c(-c3ccc(F)cc3)noc2CNC(=O)C(C)NC(=O)OC(C)(C)C)n1` (centres unmarked) [Example 722], for which the IC50 was more than 1000 nM.

With `CC(=O)c1cccc(C(=O)N2CCN(Cc3nc(-c4ccc(F)cc4)c(-c4nc(C(=O)NC(C)C)cs4)o3)CC2)c1` [Example 406], the IC50 was more than 1000 nM.

Take `CC(C)NC(=O)c1csc(-c2c(-c3ccc(F)cc3)noc2CNC(=O)CCc2nc3ccccc3[nH]2)n1` [Example 725]: the IC50 is more than 1000 nM.

`Cc1ccc(C)c(C(=O)NCc2onc(-c3ccc(F)cc3)c2-c2nc(C(=O)NC(C)C)cs2)c1` [Example 612] had a concentration for half-maximal inhibition (IC50) of more than 1000 nM.

`Cc1ccc(F)cc1C(=O)N1CCN(Cc2nc(-c3ccc(F)cc3)c(-c3nc(C(=O)NC(C)C)cs3)o2)CC1` [Example 387]: the 50% inhibitory concentration (IC50) is more than 1000 nM.

Take `CC(C)NC(=O)c1csc(-c2c(-c3ccc(F)cc3)noc2CNC(=O)c2c(F)cccc2Cl)n1` [Example 675]: the IC50 is more than 1000 nM.

`Cc1[nH]nc(-c2ccc(F)cc2)c1-c1nc(C(=O)NCc2ccncc2)cs1` [Example 77, 2-|3-(4-Fluoro-phenyl)-5-methyl-1H-pyrazol-4-yl|-thiazole-4-carboxylic acid (pyridin-4-ylmethyl)-amide] displayed an IC50 not above 1000 nM.

Turning to `CC(C)NC(=O)c1csc(-c2oc(CNC(=O)C3CCCN3C(=O)OCc3ccccc3)nc2-c2ccc(F)cc2)n1` (centres unmarked) [Example 327], the IC50 is more than 1000 nM.

Turning to `CC(C)NC(=O)c1csc(-c2c(-c3ccc(F)cc3)noc2CNC(=O)CCc2cccc(C(F)(F)F)c2)n1` [Example 775], the IC50 was more than 1000 nM.

Regarding `Cc1cc(C(=O)N2CCN(Cc3nc(-c4ccc(F)cc4)c(-c4nc(C(=O)NC(C)C)cs4)o3)CC2)ccc1Br` [Example 529], the IC50 is more than 1000 nM.

As for `CC(C)NC(=O)c1csc(-c2oc(CNC(=O)c3cc(F)c(F)cc3[N+](=O)[O-])nc2-c2ccc(F)cc2)n1` [Example 278], the half-inhibitory concentration (IC50) is not above 1000 nM.

For `CC(C)NC(=O)c1csc(-c2c(-c3ccc(F)cc3)noc2CNC(=O)c2cc(O)ccc2O)n1` [Example 621], the IC50 was more than 1000 nM.

Staying with this experiment, now noted: p38α kinase; Table 1 Biological Activity.
As to `Cc1cccc(C(=O)N2CCC(c3[nH]nc(-c4ccc(F)cc4)c3-c3nc(C(=O)NC(C)C)cs3)CC2)c1O` [Example 856], the IC50 was more than 1000 nM.

For `CC(C)NC(=O)c1csc(-c2oc(CNCc3ccccc3)nc2-c2ccc(F)cc2)n1` [Example 1084], the 50% inhibitory concentration (IC50) was more than 1000 nM.

As to `CCOc1ccc(OCC)c(NC(=O)c2csc(-c3sc(C)nc3-c3ccc(F)cc3)n2)c1` [Example 2016], the IC50 is more than 1000 nM.

The compound `Cc1cccc(C(=O)N2CCC(c3[nH]nc(-c4ccc(F)cc4)c3-c3nc(C(=O)NC(C)C)cs3)CC2)c1` [Example 835] displayed a concentration for half-maximal inhibition (IC50) of more than 1000 nM.

As for `Cc1ccc(NC(=O)c2csc(-c3sc(C)nc3-c3ccc(F)cc3)n2)cc1` [Example 1957], the IC50 is more than 1000 nM.

The compound `CC(C)NC(=O)c1csc(-c2c(-c3ccc(F)cc3)n[nH]c2C2CCN(C(=O)c3ccccc3Cc3ccccc3)CC2)n1` [Example 1001] gave an IC50 of more than 1000 nM.

`CC(C)NC(=O)c1csc(-c2c(-c3ccc(F)cc3)n[nH]c2C2CCN(C(=O)C=O)CC2)n1` [Example 813]: the 50% inhibitory concentration (IC50) was not above 1000 nM.

Consider `CC(C)NC(=O)c1csc(-c2oc(CNc3ccccc3C(=O)c3ccccc3)nc2-c2ccc(F)cc2)n1` [Example 1368], for which the half-maximal inhibitory concentration (IC50) is more than 1000 nM.

The compound `CC(C)N(CCNC(=O)c1csc(-c2c(-c3ccc(F)cc3)n[nH]c2C2CCNCC2)n1)C(C)C` [Example 2115] came in with an IC50 of more than 1000 nM.

`CC(=O)Nc1ccc(NCc2nc(-c3ccc(F)cc3)c(-c3nc(C(=O)NC(C)C)cs3)o2)cn1` [Example 1352] came in with an IC50 of more than 1000 nM.

In turn, `Cc1ccc(NCc2onc(-c3ccc(F)cc3)c2-c2nc(C(=O)NC(C)C)cs2)nc1` [Example 1634] had an IC50 of more than 1000 nM.

The compound `NCCNC(=O)c1csc(-c2c(-c3ccc(F)cc3)n[nH]c2C2CCNCC2)n1` [Example 2035] gave an IC50 of more than 1000 nM.

`CC(C)NC(=O)c1csc(-c2c(-c3ccc(F)cc3)noc2CN(C)C[C@H](O)c2ccc(O)c(O)c2)n1` [Example 1582]: the IC50 was more than 1000 nM.

`CCN(C)Cc1onc(-c2ccc(F)cc2)c1-c1nc(C(=O)NC(C)C)cs1` [Example 1511]: the half-maximal inhibitory concentration (IC50) was more than 1000 nM.

As to `COCC(C)NCc1onc(-c2ccc(F)cc2)c1-c1nc(C(=O)NC(C)C)cs1` (centres unmarked) [Example 1403], the IC50 is more than 1000 nM.

The compound `CC(C)NC(=O)c1csc(-c2c(-c3ccc(F)cc3)n[nH]c2C2CCN(C(=O)c3cccc(O)c3O)CC2)n1` [Example 861] displayed an IC50 of more than 1000 nM.

For the compound `O=C(NC1CONC1=O)c1csc(-c2c(-c3ccc(F)cc3)n[nH]c2C2CCNCC2)n1` (centres unmarked) [Example 2059], the IC50 was more than 1000 nM.

Compound `C#CCNCc1onc(-c2ccc(F)cc2)c1-c1nc(C(=O)NC(C)C)cs1` [Example 1384] returned a half-maximal inhibitory concentration (IC50) of more than 1000 nM.

The compound `CC(C)NC(=O)c1csc(-c2c(-c3ccc(F)cc3)noc2CN2CCN(C)CC2)n1` [Example 1524] gave a concentration for half-maximal inhibition (IC50) of more than 1000 nM.

Compound `Cc1nc(-c2ccc(F)cc2)c(-c2nc(C(=O)NC3CCc4ccccc43)cs2)s1` (centres unmarked) [Example 1767] came in with a half-maximal inhibitory concentration (IC50) of more than 1000 nM.

`CC(C)NC(=O)c1csc(-c2oc(CNCCNC(=O)OC(C)(C)C)nc2-c2ccc(F)cc2)n1` [Example 1156] had an IC50 of more than 1000 nM.

Compound `Cc1nc(-c2ccc(F)cc2)c(-c2nc(C(=O)N3CCC(O)(O)CC3)cs2)s1` [Example 1886] gave an IC50 of more than 1000 nM.

Regarding `COCC(C)NC(=O)c1csc(-c2c(-c3ccc(F)cc3)n[nH]c2C2CCNCC2)n1` (centres unmarked) [Example 2050], the IC50 is more than 1000 nM.

The compound `CC(C)NC(=O)c1csc(-c2c(-c3ccc(F)cc3)n[nH]c2C2CCN(C(=O)c3cc4ccccc4s3)CC2)n1` [Example 921] yielded a half-inhibitory concentration (IC50) of more than 1000 nM.

In turn, `CC(C)NC(=O)c1csc(-c2c(-c3ccc(F)cc3)n[nH]c2C2CCN(C(=O)Cc3ccc(O)c(F)c3)CC2)n1` [Example 905] displayed a half-maximal inhibitory concentration (IC50) of more than 1000 nM.

Regarding `CC(C)NC(=O)c1csc(-c2c(-c3ccc(F)cc3)n[nH]c2C2CCN(C(=O)c3c(F)c(F)c(F)c(F)c3F)CC2)n1` [Example 996], the half-maximal inhibitory concentration (IC50) is more than 1000 nM.

On to `CCc1cccc(C)c1NCc1onc(-c2ccc(F)cc2)c1-c1nc(C(=O)NC(C)C)cs1` [Example 1660], for which the IC50 was more than 1000 nM.

Take `CC(=O)c1ccc(NCc2onc(-c3ccc(F)cc3)c2-c2nc(C(=O)NC(C)C)cs2)cc1` [Example 1659]: the IC50 was more than 1000 nM.

`CC(C)NC(=O)c1csc(-c2c(-c3ccc(F)cc3)n[nH]c2C2CCN(C(=O)c3cccc(Cl)c3Cl)CC2)n1` [Example 965] returned an IC50 of more than 1000 nM.

`CC(C)NC(=O)c1csc(-c2oc(CN3CCCC(CO)C3)nc2-c2ccc(F)cc2)n1` (centres unmarked) [Example 1211] came in with an IC50 of more than 1000 nM.

`CC(C)NC(=O)c1csc(-c2c(-c3ccc(F)cc3)n[nH]c2C2CCN(C(=O)c3ccccc3-c3ccccc3)CC2)n1` [Example 981] returned a 50% inhibitory concentration (IC50) of more than 1000 nM.

The compound `CC(C)NC(=O)c1csc(-c2c(-c3ccc(F)cc3)noc2CNC2CC(C)(C)NC(C)(C)C2)n1` [Example 1481] had an IC50 of more than 1000 nM.

Regarding `Cc1cccnc1NCc1nc(-c2ccc(F)cc2)c(-c2nc(C(=O)NC(C)C)cs2)o1` [Example 1314], the concentration for half-maximal inhibition (IC50) is more than 1000 nM.

In turn, `COc1ccc(C(=O)CNCc2nc(-c3ccc(F)cc3)c(-c3nc(C(=O)NC(C)C)cs3)o2)cc1` [Example 1177] displayed an IC50 of more than 1000 nM.

Take `CC(C)NC(=O)c1csc(-c2c(-c3ccc(F)cc3)noc2CNC(=O)C(Cc2ccccn2)NC(=O)OC(C)(C)C)n1` (centres unmarked) [Example 807]: the half-maximal inhibitory concentration (IC50) is more than 1000 nM.

The compound `Cc1nc(-c2ccc(F)cc2)c(-c2nc(C(=O)Nc3c(C(C)C)cccc3C(C)C)cs2)s1` [Example 2012] registered an IC50 of more than 1000 nM.

As for `CCC(CO)NCc1nc(-c2ccc(F)cc2)c(-c2nc(C(=O)NC(C)C)cs2)o1` (centres unmarked) [Example 1074], the half-maximal inhibitory concentration (IC50) was not above 1000 nM.

The compound `CC(C)NC(=O)c1csc(-c2oc(CNc3c(C(C)C)cccc3C(C)C)nc2-c2ccc(F)cc2)n1` [Example 1362] gave an IC50 of more than 1000 nM.

Compound `O=C(NCc1ccccc1)c1csc(-c2c(-c3ccc(F)cc3)n[nH]c2C2CCNCC2)n1` [Example 2062] came in with a half-inhibitory concentration (IC50) of more than 1000 nM.
